In patent US12728132B2, “Inhibitors of the peptidyl-prolyl cis/trans isomerase (PIN1), combinations and uses thereof” (DANA-FARBER CANCER INSTITUTE, INC., priority 2021, dated 2026):
*1 amine or outer side, *2 acyl side, *3 side chain or, on linkers, in order; H or OH if unused. Where a SMILES comes first, the peptide text is derived from it. Where no end group is shown, it is not given here. [ ]: non-standard residue; d: D form. The star is where a group is joined. Pro(13C,15N) = carbon and nitrogen isotope labeled proline, O=[13C]([13C@@H]1[13CH2][13CH2][13CH2][15N]1[*:1])[*:2]; pS = N[C@@H](COP(=O)(O)O)C(=O)O; Cbz = O=C(OCc1ccccc1)*

Experiments:
[1] = tested on: K14cre; p53^f/f; Brca1^f/f tumors; experiment: Survival and tumor growth, Brca1-deficient immunocompetent TNBC mouse model; type: in vivo; conditions: mice bearing K14cre, n=6 per group
Text: (§1) All animal experiments were approved by the IACUC of the Beth Israel Deaconess Medical Center. Maximum permitted the longest dimension of tumors was 20 mm. Pieces from breast tumors generated in K14cre; p53^f/f; Brca1^f/f or K14cre; p53^wt/f; Brca1^wt/f female mice were transplanted into the mammary pad of 6-week-old FVB female mice. For survival studies, treatments were started once the tumors reached 3-5 mm in diameter and continued until mice were symptomatic or tumors reached 20 mm in any direction, at which point mice were euthanized. For time point analysis, mice were sacrificed two weeks post-treatment initiation. Control and anti-PD-L1 antibody (clone 29E.2A3) treatments were conducted by intraperitoneal injection with a dosage of 200 μg per mouse every three days. sulfopin treatment was given by intraperitoneal injection with a dosage of 60 mg/kg (7 days/week), abemaciclib treatment was given by oral gavage with a dosage of 100 mg/kg (7 days/week), or drug combinations in which each compound was administered at the same dose and scheduled as a single agent. Tumor sizes were measured every three days by caliper after implantation and tumor volume was calculated by the modified ellipsoidal formula: tumor volume=½length×width^2. The investigators were not blinded to allocation during experiments and outcome assessment.

[2] = tested on: K14cre; p53^wt/f; Brca1^wt/f tumors; experiment: Survival and tumor growth, Brca1-proficient immunocompetent TNBC mouse model; type: in vivo; conditions: mice bearing K14cre, n=10 per group
Text: as §1

[3] = tested on: K14cre; p53^wt/f, Brca1^wt/f BT3 tumors; experiment: Survival and tumor growth, FVB mice bearing BT3 tumors; type: in vivo; conditions: n=10 mice per group
Text: as §1

[4] = tested on: K14cre; Brca1^+/−; p53^−/−-TNBC; experiment: Survival until mandatory euthanasia, syngeneic FVB/N TNBC model with or without anti-PD-L1; type: in vivo; conditions: syngeneic FVB/N mice, time to mandatory euthanasia (tumor size 2 cm)
Text: All animal experiments were approved by the IACUC of the Beth Israel Deaconess Medical Center. Maximum permitted the longest dimension of tumors was 20 mm. Pieces from breast tumors generated in K14cre; p53^f/f; Brca1^f/f or K14cre; p53^wt/f; Brca1^wt/f female mice were transplanted into the mammary pad of 6-week-old FVB female mice. For survival studies, treatments were started once the tumors reached 3-5 mm in diameter and continued until mice were symptomatic or tumors reached 20 mm in any direction, at which point mice were euthanized. For time point analysis, mice were sacrificed two weeks post-treatment initiation. […] Tumor sizes were measured every three days by caliper after implantation and tumor volume was calculated by the modified ellipsoidal formula: tumor volume=½length×width^2. […]
A total of 86 FVB/N mice were grafted syngeneically with the K14cre; Brca1^+/−; p53″/tumors. […] Time to mandatory euthanasia (tumor size 2 cm) was recorded. […] Statistical significance was calculated using a two-sided log-rank test.

[5] = tested on: TNBC patient-derived xenograft (TM00096); experiment: In vivo therapy for TNBC patient-derived xenografts (PDOX); parameters: species or system human tumor in BALB/c nude mice; conditions: Rb-proficient TNBC PDOX, nude mice
Description: All animal experiments were approved by the IACUC of the Beth Israel Deaconess Medical Center. Triple-negative BC patient-derived xenograft (TM00096) was purchased from Jackson Laboratories. Pieces from PDOX tumors were subcutaneously implanted into flank of 6-week-old BALB/c female nude mice. Tumor sizes were measured every three days by caliper after implantation and tumor volume was calculated by the modified ellipsoidal formula: tumor volume=½length×width^2. Treatments were started once the tumors reached 5 mm in diameter and continued until tumors reached 15 mm in any direction. […] Sulfopin treatment was given by intraperitoneal injection with a dosage of 40 mg/kg (dissolved solution: 5% DMSO in D5W, 7 days/week), palbociclib treatment was given by oral gavage with a dosage of 100 mg/kg (dissolved solution: saline, 5 days/week), abemaciclib treatment was given by oral gavage with a dosage of 100 mg/kg (dissolved solution: 0.5% CMC-Na, 5 days/week), or drug combinations in which each compound was administered at the same dose and scheduled as a single agent. […]
PDOX tumor tissue sections were boiled in 10 mM sodium citrate (pH 6.0), for antigen retrieval after deparaffinization. […] Slides were scanned at least three different representative areas at 20× magnification using BZ-X800 fluorescence microscope (KEYENCE).

[6] = tested on: MCF-7 cells; experiment: Time-lapse single-cell tracking with APC-degron reporter; type: cell-based, human; conditions: single living cells tracked, asynchronous MCF-7
Description: MCF-7 cells were stably expressed with mCherry-Geminin (1-110) and a histone H2B-Turquoise. Cells were then plated 24 hours before starting the microscope acquisition. Pin1 inhibitors or CDK4/6 inhibitors were added in the medium and imaged using a Nikon Eclipse TE-2000 inverted microscope with a 10× Plan Apo objective and a Hammamatsu Orca ER camera, equipped with environmental chamber controlling temperature, atmosphere (5% CO2) and humidity. Images were acquired every 30 min using the MetaMorph Software. For each condition filmed, 4 different fields were selected.
p53Cinema single cell analysis package was used for semiautomatic tracking of individual cells in live cell imaging datasets as described previously (Reyes et al., Mol Cell 2018; 71:581-91 e5). Tracking data were then used to quantify intensity of fluorescent reporters from background subtracted images by averaging 10 pixels within the cell nucleus. Cells were tracked using only information about a constitutively expressed nuclear marker, such as H2B-Turquoise, and were thus blind to the dynamics of molecular players of interest, such as mCherry-Geminin. Only cells that remained within the field of view throughout the entire duration of the experiment were considered for downstream analyses. […] S/G2 durations were calculated by the time that cells spent in S/G2 phase after drugs were added.

[7] = tested on: Cdh1 binding to Pin1 WW and PPIase domains; experiment: GST-Pin1 pull-down of HA-Cdh1 after sulfopin treatment; type: cell-based, human; conditions: MCF-7 cells expressing HA-Cdh1, sulfopin 3 days, 10 μM MG132 last 12 hrs
Description: GST pull-down was performed as described previously (Lee et al., Mol Cell 2011; 42:147-59). Briefly, cells were stably expressing indicated proteins and lysed in pull-down buffer (20 mM Tris pH 8.0, 150 mM NaCl, 1 mM EDTA pH 8.0, 0.5% Nonidet-P40). The cell extracts were pre-cleared by glutathione agarose beads and incubated with 1 μM GST or GST fusion proteins overnight at 4° C. Protein complexes were recovered on glutathione agarose beads for 2 hours at 4° C., washed four to six times with pull-down buffer and eluted by boiling in SDS-containing sample buffer. Bound proteins were resolved by SDS-PAGE.
To further define the molecular mechanism of Cdh1-mediated Pin1 degradation, the interaction of Pin1 and Cdh1 was examined using GST pull-down assays using GST-Pin1 point mutations. IB analysis of GST pull-down precipitates derived from 293T cells transfected with HA-Cdh1 and GST-Pin1 mutants as indicated for 36 hrs. The graphs were one representative experiment out of three independent experiments. […] FIG. 1K and FIG. 1L show the shift of Cdh1 binding from the WW− to the PPIase domain of Pin1 upon inhibition of PPIase activity. […] Bottom graphs quantification of IB analysis for bound HA-Cdh1. […]

[8] = tested on: Pin1 in MDA-MB-231 cells; experiment: Immunoblot of Pin1 inhibitor-induced Pin1 degradation with proteasome inhibitors; type: cell-based, human; conditions: MDA-MB-231, AApin 3 days; 10 μM MG132 or 1 μM bortezomib last 12 hrs
Description: For IB analysis, cells were lysed in RIPA buffer (Thermo) supplemented with protease inhibitors (Sigma) and phosphatase inhibitors (Sigma). Protein concentrations were measured using Protein Assay Dye Reagent (Bio-Rad) and a Beckman Coulter. Equal amounts of protein were resolved by SDS-PAGE and probed with indicated antibodies. For immunoprecipitation analysis, cells were lysed in IP lysis buffer (Thermo) and pre-cleared by Mouse IgG-Agarose (Sigma) for 1 hour at 4° C. and then incubated with anti-Flag M2-Agarose (Sigma) for 2 hours at 4° C. The agaroses were washed four times with IP lysis buffer and boiled in standard Laemmli-Buffer with 5% final concentration of β-mercaptoethanol before being resolved by SDS-PAGE and immunoblotted with indicated antibodies.
Exploration of the intrinsic upstream regulators that could affect Pin1 protein stability was then sought.

[9] = target: T1, Pin1 (Homo sapiens, UniProt Q13526); experiment: NMR titration of Cdh1 phosphopeptide with Pin1; type: binding; conditions: NMR chemical shift perturbation, pH 6.6, 25° C.
Description: All NMR experiments were acquired on Bruker NEO 600 MHz spectrometer equipped with a TCI cryoprobe at 25° C. 0.1 mM ^13C, ^15N-enriched Pin1 sample dissolved in pH 6.6 buffer made-up of 20 mM Potassium Phosphate, 100 mM NaSO4 and 10% D2O was used to study peptide interaction. NMR assignments of Pin1 were taken from the BMRB database (accession number 27579) and confirmed using 3D-HNCA experiment. Synthetic peptides Cdh1-pS163 (comprised of Cdh1 residues 161-183 with phosphorylated Ser163 and isotope labeled Pro164, LR (pS)P(^13C, ^15N) […]) (SEQ ID NO: 27). were purchased from Pepmic. A systematic titration between Pin1 and phosphopeptide was performed by acquiring 2D-HSQC spectra. The absolute average chemical shift perturbation was calculated by using an equation, [(A8H2+ (A8N/5) 2)/2]½, available in software NMRFAM Sparky version 1.414.

[10] = target: T1, Pin1; experiment: Proline isomerization study by 13C-HSQC NMR; type: biochemical
Text: Commercially synthesized specific ^13C, ^15N-P164 labeled Cdh1 phosphopeptide was used to facilitate direct quantitative determination of the cis and trans proline populations. The strong ^13C-HSQC peaks originating from Pro164 can be easily distinguished from the weak peaks due to ~1% natural abundance ^13C present in the rest of the peptide. […] Based on the interpretation of the chemical shifts, the major peaks were assigned as trans isomer and the minor peaks were assigned as cis isomer (Schubert et al. J Biomol NMR 24, 149-154 (2002)). The proline resonance assignments were further confirmed using a 2D-^13C-HSQCTOCSY experiment while no attempts were made to stereospecifically assign proton resonances, thus the assignment of HB2 and HB3, HG2 and HG3, and HD2 and HD3 are interchangeable. 58 μM free peptide and its complex with a 4-fold molar excess of Pin1, dissolved in the above-mentioned NMR buffer were used to estimate the cis and trans isomer populations at 25° C.

[11] = tested on: TNBC; conditions: single agents; cited from earlier work

T1 sequence (Q13526 whole entry, the tested form may be a part): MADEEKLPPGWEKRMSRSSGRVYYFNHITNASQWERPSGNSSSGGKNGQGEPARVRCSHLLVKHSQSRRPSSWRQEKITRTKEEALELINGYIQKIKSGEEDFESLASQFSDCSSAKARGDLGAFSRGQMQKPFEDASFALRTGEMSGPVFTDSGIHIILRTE

`CC(C)(C)CN(C(=O)CCl)C1CCS(=O)(=O)C1` (centres unmarked) [sulfopin] showed a median survival [1] of 27 days, a median survival [2] of 25 days and a median survival [3] of 21 days. The median survival [4] was 22.5 days, the tumor growth [5] was “limited single agent activity” and the S/G2 duration [6] was “strikingly prolonged S/G2 phases”. For the same compound, the “binding mode of Cdh1 to Pin1” value [7] was “shift from binding to the WW domain to the PPIase domain”.
Compound `CCN1CCN(Cc2ccc(Nc3ncc(F)c(-c4cc(F)c5nc(C)n(C(C)C)c5c4)n3)nc2)CC1` [abemaciclib] has a median survival [1] of 31.5 days, a median survival [2] of 25 days and a median survival [4] of 31 days.
For `CC(C)C[C@H](NC(=O)[C@H](Cc1ccccc1)NC(=O)c1cnccn1)B(O)O` [bortezomib], the “Pin1 inhibitor-induced Pin1 degradation” value [8] was “rescued”.
In the case of “Cdh1-pS163: Cdh1 residues 161-183 with phosphorylated Ser163 and isotope labeled Pro164 (SEQ ID NO: 27) (LR[pS][Pro(13C,15N)]RKPTRKISKIPFKVLDAPE)”, the “binding to the Pin1 WW domain” value [9] is reported as “moderately strong affinity”, the cis-P164 isomer population ([10]; 1:4 complex with Pin1, 25° C.) is reported as 14.2% and the cis-P164 isomer population ([10]; free peptide, 58 μM, 25° C.) is reported as 7%.
In the case of `CC(=O)c1c(C)c2cnc(Nc3ccc(N4CCNCC4)cn3)nc2n(C2CCCC2)c1=O` [palbociclib], the median survival [3] is reported as 21 days.
For `CN(C)C(=O)c1cc2cnc(Nc3ccc(N4CCNCC4)cn3)nc2n1C1CCCC1` [ribociclib], the “single agent activity in TNBC” value [11] is given as “neither palbociclib nor ribociclib has activity in TNBC”.
With `CC(C)C[C@@H](C=O)NC(=O)[C@H](CC(C)C)NC(=O)[C@H](CC(C)C)NC(=O)OCc1ccccc1` [MG132] (Cbz-Leu-Leu-Leu-aldehyde) the “Pin1 inhibitor-induced Pin1 degradation” value [8] was “rescued”.
